The text below walks through data of paper PMC8991199, “Promiscuity mapping of the S100 protein family using a high-throughput holdup assay” (Scientific Reports, 2022).

What all share (type): binding
One assay concerns the target T1, S100A12 (Homo sapiens, UniProt P80511).
T1 sequence (P80511 1-92): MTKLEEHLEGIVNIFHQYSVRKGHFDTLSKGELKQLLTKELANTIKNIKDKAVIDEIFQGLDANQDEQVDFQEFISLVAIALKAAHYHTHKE
Description: direct fluorescence polarization (FP), S100A12. As to conditions: S100A12, 50 nM labeled foldamer, 20 mM HEPES pH 7.5, 150 mM NaCl, 1 mM CaCl2, 0.5 mM TCEP, 0.01% Tween20, quadratic fit, mean ± SEM, three technical repeats, threshold 1 mM. Here is the method: (§1) HTP (and also low-throughput) measurements generally need to be validated by an orthogonal approach to eliminate experimental artifacts. […] This way, we chose WL, IF, WW, YF, IL, VL, TW, RF, RR, TI, TM, and after resynthesizing with a fluorescent label at the C-terminus (Figs. S15–S26, Table S1), the S100ome was tested against the labeled foldamers by direct fluorescence polarization (FP) (Fig. 3A). In this assay, the association of the fluorescently labeled foldamer and the S100 protein of interest is monitored, through the change in polarization of the emitted light by the fluorophore upon the binding event. In direct FP, the presence of the fluorophore might change the binding affinity of some foldamers. […] Nevertheless, we assumed that the fluorophore would affect all foldamers that target the same binding site to the same degree, because the foldamer scaffold is rigid. Defining the threshold of detection at the dissociation constant of 1 mM, we identified 87 interactions between the selected foldamer fragments and the S100ome out of 220 possible interactions (Table 1, Fig. S4-14).
(§2) Briefly, S100 proteins were cloned into a modified pET15b vector with a TEV protease cleavable N-terminal His6-tag and expressed in Escherichia coli BL21 (DE3) cells, followed by Ni^2+-affinity chromatography. For HU assay, S100 proteins were further purified by either hydrophobic interaction chromatography or ion exchange chromatography without the cleavage of the N-terminal His6-tag applying standard conditions. For direct FP measurements, the N-terminal His6-tag was cleaved, and the S100 proteins were purified by hydrophobic interaction chromatography, ion exchange chromatography or size exclusion chromatography. The quality of the recombinant proteins was checked by SDS-PAGE analysis in all cases. The concentration of the recombinant S100 proteins was determined by UV spectrophotometry using the absorbance of Tyr and Trp residues.
(§3) In direct fluorescence polarization assays, S100 proteins were diluted in a buffer containing 50 nM labeled foldamer, 20 mM HEPES pH 7.5, 150 mM NaCl, 1 mM CaCl2, 0.5 mM TCEP and 0.01% Tween20. The dilution series (50 µl) were divided into three technical repeats and transferred (15 µl) to a 384-well microplate. In competitive fluorescence polarization assays, the buffer applied in direct measurements was supplemented with the S100 protein of interest to reach a saturation of 60–80%. This mixture was titrated with the competitor (i.e. the unlabeled peptide). Fluorescence polarization was measured in 8 different S100 concentrations (one of which contained no S100 protein) on a Synergy H4 plate reader using 485 ± 20 nm and 528 ± 20 nm band-pass filters for excitation and emission, respectively. The Kd values were obtained by fitting the data from the FP measurements with the python-based ProFit software using quadratic and competitive binding equation for direct and competitive FP, respectively. The detection threshold was based on two parameters. First, we rejected all fitted dissociation constants above 1 mM.
A general note: Fluorescence polarisation rises when a labelled molecule tumbles more slowly, as on binding a larger partner.

The target of another assay is T2, S100A16 (Homo sapiens, UniProt Q96FQ6).
T2 sequence (Q96FQ6 1-103): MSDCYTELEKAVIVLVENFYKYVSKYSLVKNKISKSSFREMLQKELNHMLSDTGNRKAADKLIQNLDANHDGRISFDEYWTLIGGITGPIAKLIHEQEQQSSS
Description: direct fluorescence polarization (FP), S100A16. As to conditions: S100A16, 50 nM labeled foldamer, 20 mM HEPES pH 7.5, 150 mM NaCl, 1 mM CaCl2, 0.5 mM TCEP, 0.01% Tween20, quadratic fit, mean ± SEM, three technical repeats, threshold 1 mM. Here is the method: as §1, §2, §3

Another assay deals with T3, S100A13 (Homo sapiens, UniProt Q99584).
T3 sequence (Q99584 1-98): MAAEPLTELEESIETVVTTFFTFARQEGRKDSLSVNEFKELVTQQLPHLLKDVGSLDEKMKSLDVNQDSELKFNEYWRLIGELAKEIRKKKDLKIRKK
Description: direct fluorescence polarization (FP), S100A13. As to conditions: S100A13, 50 nM labeled foldamer, 20 mM HEPES pH 7.5, 150 mM NaCl, 1 mM CaCl2, 0.5 mM TCEP, 0.01% Tween20, quadratic fit, mean ± SEM, three technical repeats, threshold 1 mM. Here is the method:
as §1, §2, §3

A further assay addresses T4, S100A7 (Homo sapiens, UniProt P31151).
T4 sequence (P31151 1-101): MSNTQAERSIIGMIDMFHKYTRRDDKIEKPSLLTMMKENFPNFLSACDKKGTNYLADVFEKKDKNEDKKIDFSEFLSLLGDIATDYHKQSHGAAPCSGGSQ
Description: direct fluorescence polarization (FP), S100A7. As to conditions: S100A7, 50 nM labeled foldamer, 20 mM HEPES pH 7.5, 150 mM NaCl, 1 mM CaCl2, 0.5 mM TCEP, 0.01% Tween20, quadratic fit, mean ± SEM, three technical repeats, threshold 1 mM. Here is the method:
as §1, §2, §3

For a further assay, the target named is T5, S100A8 (Homo sapiens, UniProt P05109).
T5 sequence (P05109 1-93): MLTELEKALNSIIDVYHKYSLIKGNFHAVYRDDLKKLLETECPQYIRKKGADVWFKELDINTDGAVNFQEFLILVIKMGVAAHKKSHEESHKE
Description: direct fluorescence polarization (FP), S100A8. As to conditions: S100A8, 50 nM labeled foldamer, 20 mM HEPES pH 7.5, 150 mM NaCl, 1 mM CaCl2, 0.5 mM TCEP, 0.01% Tween20, quadratic fit, mean ± SEM, three technical repeats, threshold 1 mM. Here is the method: as §1, §2, §3

The next assay has as its target T6, S100G (Homo sapiens, UniProt P29377).
T6 sequence (P29377 2-79): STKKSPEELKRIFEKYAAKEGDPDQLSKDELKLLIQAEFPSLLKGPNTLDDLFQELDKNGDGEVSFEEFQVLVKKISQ
Description: direct fluorescence polarization (FP), S100G. As to conditions: 50 nM labeled foldamer, 20 mM HEPES pH 7.5, 150 mM NaCl, 1 mM CaCl2, 0.5 mM TCEP, 0.01% Tween20, quadratic fit, mean ± SEM, three technical repeats, threshold 1 mM. As to the method: as §1, §2, §3

Another assay addresses T7, S100Z (Homo sapiens, UniProt Q8WXG8).
T7 sequence (Q8WXG8 1-99): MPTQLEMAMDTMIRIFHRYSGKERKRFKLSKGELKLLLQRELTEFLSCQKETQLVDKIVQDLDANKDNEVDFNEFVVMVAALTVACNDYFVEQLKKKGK
Description: direct fluorescence polarization (FP), S100Z. As to conditions: 50 nM labeled foldamer, 20 mM HEPES pH 7.5, 150 mM NaCl, 1 mM CaCl2, 0.5 mM TCEP, 0.01% Tween20, quadratic fit, mean ± SEM, three technical repeats, threshold 1 mM.
Source text: HTP (and also low-throughput) measurements generally need to be validated by an orthogonal approach to eliminate experimental artifacts. […] In this assay, the association of the fluorescently labeled foldamer and the S100 protein of interest is monitored, through the change in polarization of the emitted light by the fluorophore upon the binding event. In direct FP, the presence of the fluorophore might change the binding affinity of some foldamers. […] Nevertheless, we assumed that the fluorophore would affect all foldamers that target the same binding site to the same degree, because the foldamer scaffold is rigid.
as §2, §3

A word on the Kd: it is the equilibrium constant for the complex coming apart. For `CC[C@H](C)[C@@H](CC(=O)N[C@H]1CCCC[C@@H]1C(=O)N[C@H]1CCCC[C@@H]1C(=O)N[C@H](CC(=O)N[C@H]1CCCC[C@@H]1C(=O)NCC(=O)N[C@@H](CCCCNC(=O)c1ccc2c(c1)C1(OC2=O)c2ccc(O)cc2Oc2cc(O)ccc21)C(N)=O)Cc1ccccc1)NC(=O)[C@H]1CCCC[C@@H]1N` [fIF], the dissociation constant Kd at S100A12 was 590 ± 39 µM; at S100A16, greater than 1000 µM; at S100A13, greater than 1000 µM; on S100A7, greater than 1000 µM; at S100A8, 750 ± 46 µM; on S100G, greater than 1000 µM. Moreover, the Kd at S100Z is 480 ± 31 µM.
Consider `CC[C@H](C)[C@@H](CC(=O)N[C@H]1CCCC[C@@H]1C(=O)N[C@H]1CCCC[C@@H]1C(=O)N[C@H](CC(=O)N[C@H]1CCCC[C@@H]1C(=O)NCC(=O)N[C@@H](CCCCNC(=O)c1ccc2c(c1)C1(OC2=O)c2ccc(O)cc2Oc2cc(O)ccc21)C(N)=O)CC(C)C)NC(=O)[C@H]1CCCC[C@@H]1N` [fIL], for which the dissociation constant (Kd) at S100A12, at S100A16, on S100A13, on S100A7, on S100A8 and on S100G was greater than 1000 µM in each case. For the same compound, the Kd on S100Z is greater than 1000 µM.
Turning to `N=C(N)NCCC[C@@H](CC(=O)N[C@H]1CCCC[C@@H]1C(=O)N[C@H]1CCCC[C@@H]1C(=O)N[C@H](CC(=O)N[C@H]1CCCC[C@@H]1C(=O)NCC(=O)N[C@@H](CCCCNC(=O)c1ccc2c(c1)C1(OC2=O)c2ccc(O)cc2Oc2cc(O)ccc21)C(N)=O)Cc1ccccc1)NC(=O)[C@H]1CCCC[C@@H]1N` [fRF], the Kd at S100A12, at S100A16, at S100A13, on S100A7, at S100A8 and at S100G was greater than 1000 µM throughout. In addition, at S100Z, the Kd came out at 890 ± 120 µM.
Turning to `N=C(N)NCCC[C@@H](CC(=O)N[C@H]1CCCC[C@@H]1C(=O)NCC(=O)N[C@@H](CCCCNC(=O)c1ccc2c(c1)C1(OC2=O)c2ccc(O)cc2Oc2cc(O)ccc21)C(N)=O)NC(=O)[C@H]1CCCC[C@@H]1NC(=O)[C@H]1CCCC[C@@H]1NC(=O)C[C@H](CCCNC(=N)N)NC(=O)[C@H]1CCCC[C@@H]1N` [fRR], the equilibrium dissociation constant (Kd) on S100A12, at S100A16, at S100A13, at S100A7, at S100A8 and on S100G was greater than 1000 µM each time. Besides, the Kd at S100Z was greater than 1000 µM.
As to `CC[C@H](C)[C@@H](CC(=O)N[C@H]1CCCC[C@@H]1C(=O)NCC(=O)N[C@@H](CCCCNC(=O)c1ccc2c(c1)C1(OC2=O)c2ccc(O)cc2Oc2cc(O)ccc21)C(N)=O)NC(=O)[C@H]1CCCC[C@@H]1NC(=O)[C@H]1CCCC[C@@H]1NC(=O)C[C@@H](NC(=O)[C@H]1CCCC[C@@H]1N)[C@@H](C)O` [fTI], the Kd on S100A12, on S100A16, on S100A13, at S100A7, at S100A8 and on S100G was greater than 1000 µM throughout. In addition, the Kd on S100Z is greater than 1000 µM.
Turning to `CSCC[C@@H](CC(=O)N[C@H]1CCCC[C@@H]1C(=O)NCC(=O)N[C@@H](CCCCNC(=O)c1ccc2c(c1)C1(OC2=O)c2ccc(O)cc2Oc2cc(O)ccc21)C(N)=O)NC(=O)[C@H]1CCCC[C@@H]1NC(=O)[C@H]1CCCC[C@@H]1NC(=O)C[C@@H](NC(=O)[C@H]1CCCC[C@@H]1N)[C@@H](C)O` [fTM], the Kd on S100A12, on S100A16, on S100A13, on S100A7, on S100A8 and at S100G was greater than 1000 µM in each case. Further, the Kd on S100Z was greater than 1000 µM.
`C[C@@H](O)[C@@H](CC(=O)N[C@H]1CCCC[C@@H]1C(=O)N[C@H]1CCCC[C@@H]1C(=O)N[C@H](CC(=O)N[C@H]1CCCC[C@@H]1C(=O)NCC(=O)N[C@@H](CCCCNC(=O)c1ccc2c(c1)C1(OC2=O)c2ccc(O)cc2Oc2cc(O)ccc21)C(N)=O)Cc1c[nH]c2ccccc12)NC(=O)[C@H]1CCCC[C@@H]1N` [fTW]: the Kd is greater than 1000 µM on S100A12; greater than 1000 µM at S100A16; greater than 1000 µM at S100A13; greater than 1000 µM at S100A7; 770 ± 180 µM at S100A8; greater than 1000 µM on S100G.
Turning to `CC(C)C[C@@H](CC(=O)N[C@H]1CCCC[C@@H]1C(=O)NCC(=O)N[C@@H](CCCCNC(=O)c1ccc2c(c1)C1(OC2=O)c2ccc(O)cc2Oc2cc(O)ccc21)C(N)=O)NC(=O)[C@H]1CCCC[C@@H]1NC(=O)[C@H]1CCCC[C@@H]1NC(=O)C[C@@H](NC(=O)[C@H]1CCCC[C@@H]1N)C(C)C` [fVL], the dissociation constant (Kd) on S100A12, at S100A16, at S100A13, on S100A7, on S100A8 and on S100G was greater than 1000 µM each time. In addition, at S100Z, the Kd is greater than 1000 µM.
On to `CC(C)C[C@@H](CC(=O)N[C@H]1CCCC[C@@H]1C(=O)NCC(=O)N[C@@H](CCCCNC(=O)c1ccc2c(c1)C1(OC2=O)c2ccc(O)cc2Oc2cc(O)ccc21)C(N)=O)NC(=O)[C@H]1CCCC[C@@H]1NC(=O)[C@H]1CCCC[C@@H]1NC(=O)C[C@H](Cc1c[nH]c2ccccc12)NC(=O)[C@H]1CCCC[C@@H]1N` [fWL], for which the Kd on S100A12 is 254 ± 113 µM; at S100A16, 304 ± 131 µM; on S100A13 it was greater than 1000 µM; on S100A7, 23 ± 1.5 µM; at S100A8, 74 ± 3.5 µM; at S100G, greater than 1000 µM. The Kd at S100Z was greater than 1000 µM.
